Results: US9552457B2, “Reprogramming effector protein interactions to correct epigenetic defects in cancer” (BRITISH COLUMBIA CANCER AGENCY BRANCH, priority 2012, dated 2017)
Like-named read-outs stand apart in the source and are kept apart here.

How the values were obtained:
[1] = biological target: T1, GST-BPTF dual PHD finger-bromodomain (Homo sapiens, UniProt Q12830); test: BPTF pull down assay with H3K4 methylated peptides; assay type: binding; settings: 68 μM drug
T1 construct: The dual PHD finger-bromodomain (residues 2583-2751) from the human BPTF (gi:31322942); made in house; host or cells: E. coli BL21-AI
Protocol: Certain embodiments of the invention relate to the use of a “pull down” assay to characterize the binding of candidate compounds to the target mark. A general schema for such an assay as it applies to BPTF is shown in FIG. 4 and described in Example 5. Briefly, the GST-labeled PHD finger-bromodomain of BPTF was incubated with the candidate compound and H3K4me0, me1, me2 or me3 peptides that were coupled to streptavidin-labeled dynabeads through a biotin molecule on the peptide. After washing with an appropriate buffer, bound protein was eluted from the beads and assessed by SDS-PAGE and optionally Western blot. One skilled in the art will appreciate that this assay can be readily adapted to other readers/erasers and histone marks.
The full-length human BPTF construct was obtained from C. David Allis of the Laboratory of Chromatin Biology, Rockefeller University (Li et al., 2006, ibid). The dual PHD finger-bromodomain (residues 2583-2751) from the human BPTF (gi:31322942) was cloned into a pDEST15 vector using Gateway® cloning technology allowing for an N-terminal GST tag (Life Technologies). Over-expression of the GST-BPTF dual PHD finger-bromodomain was induced in BL21-AI™ chemically competent E. coli cells using LB medium supplemented with 1 mM IPTG and 0.2% L-arabinose for 2 hours in a 37° C. shaking incubator. GST-BPTF dual PHD finger-bromodomain was purified using Glutathione Sepharose 4B media (GE Healthcare Life Sciences) and dialyzed against PBS (Life Technologies) overnight.
The peptide pull-down experiment was performed essentially as previously described (Ruthenburg et al., 2011, Cell, 145(5):692-706.). Fifty microliters of M-280 streptavidin-coupled Dynabeads® (Life Technologies) were dispensed into 1.5 mL microtubes and washed 3×50 μL in PBS. The beads were then incubated with C-terminally biotinylated H3K4me0, me1, me2 or me3 peptides 21 amino acids long (Anaspec) rotating for 1 hour at 4° C. under saturating conditions. The beads were washed 3×100 μL in HBS-TD (10 mM Na-HEPES, 150 mM NaCl, 0.005% Tween-20, 2 mM DTT) and incubated with 6.8 μM of GST-BPTF along with either 68 μM of drug in a 1:100 DMSO to PBS solution or carrier alone rotating for 3 hours at 4° C. The beads were then washed 10×200 μL in HBS-TD. The protein was eluted using 2×LDS sample buffer (Life Technologies) and 1× reducing agent (Life Technologies) at 85° C. for 10 minutes. Samples were subjected to SDS-PAGE and bands were visualized using either SimplyBlue stain (Life Technologies) or GST antibody (Santa Cruz). Quantification of bands was made using ImageJ software.

[2] = system: SU-DHL-9 (MLL2 mutated) tumours; test: SU-DHL-9 mouse xenograft model; assay type: in vivo; settings: eight days, day nine
Protocol: NOD/SCID/γ^null (NSG) mice were bred at the local BCCRC animal facility. To establish primary tumors, male NSG mice were inoculated with 1×10^7 cells of the human diffuse histiocytic lymphoma cell line SU-DHL-9 in 50 μl PBS in the flank area. After development of s.c. tumors, mice were sacrificed and small fragments of the tumors (˜20 mg) were transplanted s.c. into the right flank of anesthetized six-ten weeks old male NSG recipient mice using 13 G trocar needles. Treatment was initiated once the tumors became palpable. Tumourlength and width was determined by caliper and tumourvolume was calculated by the modified ellipsoidal formula as […].
Compounds were diluted in a mixture of 50% DMSO and 50% polyethylene glycol 200. Eight tumor-bearing mice per group were administered by intraperitoneal injections daily over a period of eight days with either compounds at doses of 1 mg/kg or 4 mg/kg (Compound 3; NSC 127763), 4 mg or 12 mg/kg (Compound 2; NSC 304107) or the vehicle for control. Body weight was recorded every two days, tumoursize every four days and mice were monitored for any other additional adverse effects. Experimental animals were sacrificed at day nine, tumourvolumes were determined and the significance of differences was determined by Student's t-test after normalizing to the initial tumourvolume.

[3] = system: DoHH-2, OCI-LY3, WSU-DLCL2 (all wild-type for MLL2); test: alamarBlue cell proliferation assay, MLL2 wild-type cell lines; assay type: cell-based; settings: for activity against wild-type cells: in words
Protocol: Diffuse large B-cell lymphoma cell lines were maintained in RPMI medium 1640 (Life Technologies) supplemented with 10% (v/v) fetal bovine serum (Life Technologies) and 1% penicillin/streptomycin (Life Technologies) in a 37° C. incubator with 5% CO2, humidified atmosphere. Cell line DOHH2 was obtained from DSMZ. Pfeiffer was obtained from ATCC. SU-DHL-9 was obtained from Martin Dyer (University of Leicester, UK).
(§1) Compounds were initially solubilized in DMSO at a concentration of 10 mM. This compound solution was further diluted 1:100 in RPMI medium 1640 to a final concentration of 100 μM. Ninety microliters of cells maintained at a concentration of 4×10^5 cells/mL were dispensed into wells of a MICROTEST™ 96-well Assay Plate, Optilux™ (BD). Ten microliters of the 100 μM compound solution were then added to the cells resulting in a final compound concentration of 10 μM. Each compound was tested in triplicate. Ten microliters of a 1:100 DMSO to RPMI medium 1640 solution were also added to 90 μL of cells as a carrier control. Furthermore, each plate included wells containing only RPMI medium 1640 to serve as a background noise control as well as cells that were completely untreated. Compounds were incubated with the cells in a 37° C. incubator with 5% CO2, humidified atmosphere for 48 hours before being subjected to the alamarBlue® cell proliferation assay (Life Technologies). Raw fluorescent units were corrected for background noise and normalized to the carrier-treated control.
The activity of Compound 3 in vitro was investigated further using the cell lines DoHH-2, OCI-LY3, WSU-DLCL2 (all wild-type for MLL2) and SU-DHL9. In addition, the dose response for Compound 2 was investigated in cell lines mutant for MLL2 or both MLL2 and EZH2. The dose response for Compound 3 was investigated in a MLL2 mutant cell line. Methods were as described for Example 3. Cell-line WSU-DLCL2 was obtained from DSMZ and OCI-Ly lines 3 was obtained from Louis Staudt (US National Institutes of Health).

[4] = system: SU-DHL-9 (MLL2 homozygous indel mutant) cell line; test: alamarBlue cell proliferation assay, SU-DHL-9 cell line; assay type: cell-based, human; settings: for activity at 10 µM: Homo sapiens, 48 hours, normalized to carrier-treated control, SU-DHL-9, read-out: % Cell Proliferation; for activity against the MLL2 double LoF mutant cell line: SU-DHL-9, in words; for activity as worded in SAR analysis (selective toxicity against SU-DHL-9): in words, restates Tables 3 and 4
Protocol: Cell line DOHH2 was obtained from DSMZ. Pfeiffer was obtained from ATCC. SU-DHL-9 was obtained from Martin Dyer (University of Leicester, UK).
as §1, with “This compound solution was further diluted 1:100 in RPMI medium 1640 to a final concentration of 100 μM.” left out, “Ten microliters of a 1:100 DMSO to RPMI medium 1640 solution were also added to 90 μL of cells as a carrier control. Furthermore, each plate included wells containing only RPMI medium 1640 to serve as a background noise control as well as cells that were completely untreated.” left out

[5] = system: DoHH2 Cells (wildtype for EZH2, MEF2B and MLL2); test: Cell viability of lymphoma cell lines, DoHH-2; assay type: cell-based; settings: DoHH-2, in words
Protocol: (§2) Compound 50 was tested for its effect on the viability of three lymphoma cell lines in vitro using standard methods. The cell lines tested were: DoHH-2 (wildtype for EZH2, MEF2B and MLL2); WSU-DLCL2 (EZH2 mutation Y641F (wildtype for MEF2B and MLL2)) and DB (EZH2 mutation Y641N, the MEF2B mutation D83V and three mutations in MLL2 (two of which lead to a truncated protein after residue Q2736 and the third allele has a 1 base pair deletion at residue P480)).
(§3) Compound 51 (NSC2540) was tested for its effect on the viability of four lymphoma cell lines in vitro using standard methods. The cell lines tested were DoHH-2, WSU-DLCL2, DB and SU-DHL-9 (EZH2 wildtype, MEF2B wildtype, MLL2 indel).

[6] = system: DB (EZH2 mutation Y641N, MEF2B mutation D83V, three mutations in MLL2); test: Cell viability of lymphoma cell lines, DB; assay type: cell-based; settings: in words
Protocol: as §2

[7] = system: WSU-DLCL2 human diffuse large cell lymphoma tumours; test: WSU-DLCL2 mouse xenograft model; assay type: in vivo; settings: evaluation at day 12
Protocol: WSU-DLCL2 tumourfragments were transplanted subcutaneously into the flank of male NSG mice. Mice were 9.0-9.3 weeks at transplantation and treatment was started when the mice were between 12.9 and 13.1 weeks. 8 mice were used per group and treatment was daily for ten days with evaluation at day 12. Tumoursize determined by caliper every four days, tumourvolume calculated by length×width^2/2.
The groups of mice were treated with vehicle (control), 1 mg/kg Compound 50 or 4 mg/kg Compound 50 by intraperitoneal injection. Vehicle was 50% DMSO/50% PEG-400.
WSU-DLCL2 tumourfragments were transplanted subcutaneously into the flank of male NSG mice. Mice were 5.3-9.4 weeks at transplantation and treatment was started when the mice were between 8.6 and 12.7 weeks. 8 mice were used in the control group and 6 mice were used in the Compound 51 treated group. Treatment was daily for ten days with evaluation at day 12. Tumoursize determined by caliper every four days, tumourvolume calculated by length×width^2/2.
The groups of mice were treated with vehicle (control) or Compound 51 by intraperitoneal injection at 4 mg/kg for the first 5 days and 2 mg/kg for the subsequent 5 days. Vehicle was 50% DMSO/50% PEG-400.

[8] = system: WSU-DLCL2 Cells (EZH2 mutation Y641F); test: Cell viability of lymphoma cell lines, WSU-DLCL2; assay type: cell-based, human; settings: WSU-DLCL2, in words
Protocol: as §2, §3

[9] = system: HCC202 (CRL-2316); test: Viability of breast cancer cell lines, HCC202; assay type: cell-based; settings: in words
Protocol: (§4) Compounds 50 and 51 were tested for their effect on the viability of four breast cancer cell lines in vitro using standard methods. The cell lines tested were: MCF-7, MDA-MB-231, HCC202 (CRL-2316) and HCC1500 (CRL-2329).

[10] = system: HCC1500 (CRL-2329); test: Viability of breast cancer cell lines, HCC1500; assay type: cell-based; settings: in words
Protocol: as §4

[11] = system: MDA-MB-231; test: Viability of breast cancer cell lines, MDA-MB-231; assay type: cell-based; settings: MDA-MB-231, in words
Protocol: as §4

[12] = system: SU-DHL-9 (EZH2 wildtype, MEF2B wildtype, MLL2 indel); test: Cell viability of lymphoma cell lines, SU-DHL-9 (CBX2 compound); assay type: cell-based, human; settings: SU-DHL-9, in words
Protocol: as §3

[13] = 6.8 μM GST-BPTF, GST antibody staining

SMILES: O=C1c2ccccc2C(=O)c2c(NC(=O)C(Cl)CCl)cccc21 (stereo not shown) [Compound 3, 2,3-didhloro-N-(9,10-dioxo-9,10-dihydro-anthracen-1-yl)-propionamide]
- binding of H3K4me1 with BPTF [1, 13]: able to stabilize the binding
- binding of H3K4me3 with BPTF [1, 13]: diminished binding
- Densitometry value, H3K4me3 + compound ([1]; without compound 2545): 4227
- Densitometry value, H3K4me1 + compound ([1]; without compound 9350): 13335
- median tumour growth ([2]; 4 mg/kg intraperitoneal daily, untreated control 563%): 362%
- effect on cells where MLL2 was wild-type ([3]; DoHH-2, OCI-LY3, WSU-DLCL2): no obvious effect
- activity against wild-type cells [3]: inactive
- activity at 10 µM ([4]; Table 4, scaffold B): < 10%
- activity against the MLL2 double LoF mutant cell line [4]: active
- activity as worded in SAR analysis (selective toxicity against SU-DHL-9) [4]: active

SMILES: CN(C)CCC(=O)c1ccc(Cl)cc1Cl [Compound 2, 1-(2,4-dichloro-phenyl)-3-dimethylamino-propan-1one]
- binding of H3K4me2 with BPTF [1, 13]: able to stabilize the binding
- binding of H3K4me3 with BPTF [1, 13]: diminished binding
- median tumour growth ([2]; 12 mg/kg intraperitoneal daily, untreated control 1755%): 1305%
- activity against wild-type cells [3]: inactive
- activity at 10 µM ([4]; Table 3, scaffold A): < 10%
- activity against the MLL2 double LoF mutant cell line [4]: active
- activity as worded in SAR analysis (selective toxicity against SU-DHL-9) [4]: active

SMILES: O=C(CBr)c1cc(-c2ccccc2)nc2c(Cl)cc(Cl)cc12 [Compound 50]
- effect on viability [5]: reduced the viability
- effect on viability [6]: reduced the viability
- effect on tumour volume ([7]; 1 mg/kg or 4 mg/kg intraperitoneal daily for ten days, p=0.0047 control vs 4 mg/kg): able to reduce tumour volume
- effect on viability [8]: highest activity

SMILES: OC(c1cc(-c2ccc(Cl)c(Cl)c2)nc2ccccc12)C1CCCCN1 (stereo not shown) [Compound 51]
- effect on viability [9]: able to decrease viability
- effect on viability [10]: able to decrease viability
- effect on viability [5]: able to decrease viability
- effect on tumour volume ([7]; intraperitoneal 4 mg/kg for 5 days then 2 mg/kg for 5 days, p=0.0125): able to significantly reduce tumourvolume
- effect on viability [11]: able to decrease viability
- effect on viability [8]: able to decrease viability
- effect on viability [12]: able to decrease viability
